Assay results taken from patent US4920129A, “Anti-ulcerative imidazopyridine compounds” (Fujisawa Pharmaceutical Company, Ltd., priority 1987, dated 1990).

Tests used:
stress ulcer = experiment: Inhibition on stress ulcer (water-bath immobilization); type: in vivo, Sprague-Dawley rats; settings: 32 mg/kg, oral, just before immobilization; 7 hours; rats
Procedure: INHIBITION ON STRESS ULCER
Five Sprague-Dawley rats weighing about 200 g were used per group. Each animal was immobilized in a small cage and put in a water bath allowing to respire. The temperature of the water bath kept at 22° C. The test compound was administered orally just before the immobilization. Seven hours later, the animals were sacrificed and their stomachs were removed. The stomach was then fixed with 2% formalin. The area of ulcers was measured for each animal. The mean area (mm^2) in the medicated animals was compared with that in the control animals.

[1] = system: gastrin-stimulated acid secretion; experiment: Effect on gastrin-stimulated acid secretion in Heidenhain pouch dogs; type: in vivo; settings: 3.2 mg/kg, oral, tetragastrin 10 μg/kg/hr infusion, gastric juice collected 3 hr after drug
Procedure: EFFECT ON GASTRIN-STIMULATED ACID SECRETION IN HEIDENHAIN POUCH DOGS
Dogs equipped with Heidenhain pouches were placed on tables and restrained minimally in pavlov slings. Gastrin(tetragastrin) in 0.9% saline was continuously infused through the cephalic vein at a dose of 10 μg/kg/hr over a 5- to 6-hr period in a volume of 0.1 ml/kg/min. After acid secretion had reached a plateau (usually within 2 hr), drug was given orally in a volume of 1 ml/kg. Gastric juice was collected at 15 min intervals for 1 hr before and for 3 hr after drug administration. The volume of each sample was determined, and an aliquot was titrated to pH 7.0 with 0.1M NaOH. Acid output was expressed as μEq H^+ /15 min. The effect of drug was described as percent drug-induced change in acid secretion.

SMILES: C#CCc1c(C)nc2c(NCc3c(C)cccc3NC(=O)OC)cccn12 [(1), 8-(2-Methyl-6-methoxycarbonylaminobenzylamino)-3-(2-propynyl)-2-methylimidazo[1,2-a]pyridine]
- Inhibition % (area of ulcers) (stress ulcer): 100%
- Maximum inhibition % (acid secretion) [1]: 100%
